Tests used:
[1] = test system: SARS-CoV-2 virus spike binding to ACE2; conditions: by computational screening; cited from earlier work
[2] = test system: pro-inflammatory genes (IL1B, IL6) in differentiated THP-1 cells; format: cell-based
SARS-CoV-2 replicon = experiment: microbe, parasite or virus in culture; format: cell-based; conditions: Severe acute respiratory syndrome coronavirus 2, HEK-293T, read-out: EC50, replication of SARS-CoV-2 replicon (luciferase activity)
[3] = test system: pro-inflammatory genes, IL6 and TNF, in Calu-3 cells; format: cell-based
[4] = test system: SARS-CoV-2 (hCoV-19/Taiwan/NTU49/2020); format: cell-based; conditions: Calu-3, 10 μM for 24 h after infection
[5] = test system: SARS-CoV-2 (hCoV-19/Taiwan/NTU49/2020); experiment: microbe, parasite or virus in culture; format: cell-based
[6] = test system: wild-type SARS-CoV-2 pseudovirus SEMpv; experiment: microbe, parasite or virus in culture; format: cell-based; conditions: Severe acute respiratory syndrome-related coronavirus, BHK-ACE2, 48 h, read-out: EC50, pseudovirus entry
[7] = test system: wild-type SARS-CoV-2 pseudovirus Spv; experiment: microbe, parasite or virus in culture; format: cell-based; conditions: Severe acute respiratory syndrome-related coronavirus, BHK-ACE2, 48 h, read-out: EC50, pseudovirus entry
VSV-pseudovirus (Gpv) = format: cell-based
[8] = test system: SARS-CoV-2 Alpha (B.1.1.7); experiment: microbe, parasite or virus in culture; format: cell-based; conditions: Severe acute respiratory syndrome coronavirus 2, Vero C1008, Alpha (B.1.1.7)
[9] = test system: SARS-CoV-2 Eplison (B.1.429); experiment: microbe, parasite or virus in culture; format: cell-based; conditions: Severe acute respiratory syndrome coronavirus 2, Vero C1008, Eplison (B.1.429)
SARS-CoV-2 Gamma (P1) = experiment: microbe, parasite or virus in culture; format: cell-based; conditions: Severe acute respiratory syndrome coronavirus 2, Vero C1008, Gamma (P1)
[10] = test system: SARS-CoV-2 Delta (B.1.617.2); experiment: microbe, parasite or virus in culture; format: cell-based; conditions: Severe acute respiratory syndrome coronavirus 2, Vero C1008, Delta (B.1.617.2)
[11] = test system: SARS-CoV-2 Omicron (BA.1); experiment: microbe, parasite or virus in culture; format: cell-based; conditions: Severe acute respiratory syndrome coronavirus 2, Vero C1008
SARS-CoV-2 pseudoviruses = format: cell-based; conditions: pseudovirus pre-treated with compound 37 °C 1 h, BHK-ACE2 48 h, luciferase
BHK-ACE2 cells = conditions: BHK-ACE2, 48 h, MTS
spike protein = conditions: cited from earlier work
[12] = compound given after pseudovirus infection, 16 h (time-of-addition study)

SMILES: C=C(C)[C@@H]1CC[C@]2(C(=O)O)CC[C@]3(C)[C@H](CC[C@@H]4[C@@]5(C)CC[C@H](O)C(C)(C)[C@@H]5CC[C@]43C)[C@@H]12 [Betulinic acid]
- inhibition of spike binding to ACE2 through the RBD domain [1]: inhibit SARS-CoV-2 virus spike binding to ACE2

SMILES: C=C(C)[C@@H]1CC[C@]2(CO)CC[C@]3(C)[C@H](CC[C@@H]4[C@@]5(C)CC[C@@H](O)C(C)(C)[C@@H]5CC[C@]43C)[C@@H]12 [Compound 5, 3-epi-Betulin]
- decrease in IL1B expression [2, 12]: 69.5%
- decrease in IL6 expression [2, 12]: 82.9%
- expression of pro-inflammatory genes, pre-inoculation ([2]; compound mixed with pseudovirus 1 h before infecting differentiated THP-1 cells): remained unchanged
- expression of pro-inflammatory genes, pre-treatment ([2]; compound on differentiated THP-1 cells 1 h before pseudovirus infection): remained unchanged
- IL1B RNA level decrease ([2]; differentiated THP-1 infected with SEMpv, then compound for 16 h): 47.3%
- EC50 (SARS-CoV-2 replicon): 11.7 ± 0.4 µM
- IL6 expression decrease [3]: 66.6%
- TNF expression decrease [3]: 46.0%
- minus-stranded viral RNA decrease [4]: 51.7%
- plus-stranded viral RNA reduction [4]: 73.8%
- culture supernatant viral load decrease ([4]; RT-qPCR): 61.4%
- plaque formation decline ([4]; plaque assay of supernatant): 51.5%
- EC50 ([5]; Severe acute respiratory syndrome coronavirus 2, Calu-3 lung epithelial cells, read-out: EC50, SARS-CoV-2 infection): < 20 µM
- intracellular viral RNA decrease ([5]; virus pre-incubated with 20 μM, Calu-3, 24 h): 45.6%
- infectious virus titer decrease ([5]; virus pre-incubated with 20 μM, Calu-3, 24 h, plaque assay): 66.3%
- EC50 [6]: 14.6 µM
- EC50 [7]: 16.3 µM
- inhibitory activity against control VSV-pseudovirus (VSV-pseudovirus (Gpv)): no inhibitory activity
- EC50 [8]: 10.3 µM
- EC50 [9]: 12.9 µM
- EC50 (SARS-CoV-2 Gamma (P1)): 3.27 µM
- EC50 [10]: 3.09 µM
- EC50 [11]: 14.5 ± 3.9 µM
- inhibitory activity for virus entry (SARS-CoV-2 pseudoviruses): highest inhibitory activity
- cytotoxicity (BHK-ACE2 cells): no cytotoxicity

SMILES: C=C(C)[C@@H]1CC[C@]2(CO)CC[C@]3(C)[C@H](CC[C@@H]4[C@@]5(C)CC[C@H](O)C(C)(C)[C@@H]5CC[C@]43C)[C@@H]12 [Compound 7, Betulin]
- ability to bind to the spike protein (spike protein): ability to bind to the spike protein

From publication PMC10707724, “Dual Effects of 3-epi-betulin from Daphniphyllum glaucescens in Suppressing SARS-CoV-2-Induced Inflammation and Inhibiting Virus Entry” (International Journal of Molecular Sciences, 2023)
